According to ChEMBL document CHEMBL1150333, “Isolation and antimalarial activity of new morphinan alkaloids on Plasmodium yoelii liver stage” (Bioorg Med Chem, 2008):
pIC50: −log10 of the molar value. The source made the active and inactive calls. The rule behind the calls is not given here.

Key:
[1] = Cytotoxicity against primary mouse hepatocytes after 48 hrs by neutral red assay; assay type: cell-based, Hepatocyte; settings: read-out: TC50
Plasmodium yoelii yoelii [2] = experiment: Antimalarial activity against Plasmodium yoelii 265 sporozoites in primary mice (Mus musculus) hepatocytes after 48 hrs; assay type: functional, organism-based; settings: 265 BY, Hepatocyte
[3] = Selectivity index, ratio of TC50 for primary mice (Mus musculus) hepatocytes to IC50 for Plasmodium yoelii yoelii 265 BY liver stage sporozoites; parameters: species or system Hepatocyte
Plasmodium yoelii yoelii [4] = experiment: Antimalarial activity against Plasmodium yoelii 265 BY liver stage sporozoites in primary mice (Mus musculus) hepatocytes at 38.6 uM after 48 hrs; assay type: functional; settings: Hepatocyte
Plasmodium yoelii yoelii [5] = experiment: Antimalarial activity against Plasmodium yoelii 265 BY liver stage sporozoites in primary mice (Mus musculus) hepatocytes at 7.1 uM after 48 hrs; assay type: functional, organism-based; settings: Hepatocyte

| SMILES | CC50 at 48 h [1] [µM] | pIC50 (Plasmodium yoelii yoelii [2]) | Ratio [3] | inhibition in vivo at 38.6 µM (Plasmodium yoelii yoelii [4]) [%] | Activity (Plasmodium yoelii yoelii [5]) |
| --- | --- | --- | --- | --- | --- |
| COC1=C2[C@H]3NCC[C@]2(C[C@H](O)[C@@H]1O)c1c(ccc(OC)c1O)[C@@H]3O[C@@H]1O[C@H](CO)[C@@H](O)[C@H](O)[C@H]1O | > 390 | < 3.41 | – | – | – |
| COC1=C2[C@H]3NCC[C@]2(C[C@H](O)[C@@H]1O)c1c(ccc(OC)c1O)[C@@H]3O | 388 | 4.79 | 24.1 | – | – |
| COc1cc(NC(C)CCCN)c2ncccc2c1 (stereo unspecified) [PRIMAQUINE] | 70.5 | 6.19 | 110 | 80 | – |
| COC1=C2[C@@H]3Cc4ccc(OC)c(O)c4[C@]2(CCN3)C[C@H](O)[C@@H]1O [SINOCOCULINE] | 62.2 | 5.35 | 13.8 | – | – |
| COC1=C2[C@H]3NCC[C@]2(C[C@H](O)[C@@H]1O)c1c(ccc(OC)c1O)[C@H]3O [TAZOPSINE] | 43.7 | 5.51 | 14 | – | Active |
